The values below come from patent US4478826A, “Renin inhibitory peptides” (Merck & Co., Inc., priority 1982, dated 1984).

The structures appear in SMILES notation. Square brackets hold non-standard residues; d marks the D form. Peptide text beside a SMILES is read from it. * marks the point of attachment. Sta = CC(C)C[C@H](N)[C@@H](O)CC(=O)O; Isobutyryl = CC(C)C(=O)*

In this assay the target is T1, human renin (Homo sapiens, UniProt P00797).
T1 construct: Human plasma (lyophilized) was used as the source of human substrate and human renin; from tissue; host or cells: human plasma (lyophilized)
T1 sequence (P00797 67-406): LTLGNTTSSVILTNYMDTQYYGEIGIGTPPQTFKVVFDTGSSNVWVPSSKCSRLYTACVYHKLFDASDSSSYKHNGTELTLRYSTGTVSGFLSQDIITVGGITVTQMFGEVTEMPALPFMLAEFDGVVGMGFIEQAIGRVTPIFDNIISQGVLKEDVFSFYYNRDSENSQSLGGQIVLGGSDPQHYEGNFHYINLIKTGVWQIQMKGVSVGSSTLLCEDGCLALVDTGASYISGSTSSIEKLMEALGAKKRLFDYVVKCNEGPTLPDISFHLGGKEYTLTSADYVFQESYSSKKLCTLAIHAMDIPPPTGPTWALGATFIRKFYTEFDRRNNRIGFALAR
Briefly: Human renin assay (radioimmunoassay of angiotensin I, human plasma). In kind it is biochemical. The settings on record: human plasma (lyophilized) as source of human substrate and human renin; read-out: I50 (M) Human renin. From the text:
This method employs a radioimmunoassay technique to measure the amount of angiotensin I product of renin cleavage of its substrate. Human plasma (lyophilized) was used as the source of human substrate and human renin. I50 values were obtained by plotting data at several inhibitor concentrations.

For the compound `CC(C)C[C@H](NC(=O)[C@H](Cc1c[nH]cn1)NC(=O)[C@H](Cc1ccccc1)NC(=O)[C@@H]1CCCN1C(=O)[C@H](Cc1c[nH]cn1)NC(=O)C(C)C)[C@@H](O)CC(=O)N[C@@H](C)C(=O)N[C@@H](Cc1ccccc1)C(N)=O` [IBU--His--Pro--Phe--His--Sta--Ala--Phe--NH2] (Isobutyryl-HPFH[Sta]AF-NH2), the IC50 stood at 4.2e-08 M.
